Columns and labels:
Experiment in all cases: Gene expression (quantitative RT-PCR) in TGFβ1-activated hHSC
Format in all cases: cell-based, human
[1] = test system: TGFβR1 gene expression in hHSC; settings: 10 μM; TGFβ1 1 ng/mL, 24 hours, serum free
Protocol: (§1) The human primary hepatic stellate cells (hHSC) (ScienCell) were cultured under standard conditions, as described above. For experiments to determine gene expression patterns, hHSC were plated at a density of 1.4×10^5 cells/well into 12-well plates and were cultured overnight. […] Cells were treated with compounds in addition to TGFβ1 (1 ng/mL) in a serum-free and SteCGS-free medium for 24 hours.
(§2) Total RNA was isolated using RNeasy® Mini Kit (Qiagen) following manufacturer's instructions.
(§3) Quantitative PCR was then carried out using the MyiQ Single-Color Real-Time PCR Detection or the iCycler iQ Multiplex Real-Time PCR Detection System (both systems from Biorad). Briefly, PCR reactions were performed in 96 Well plates on 5 μL of 5× diluted reverse transcription mix using the iQ SYBR Green Supermix kit. The experimental conditions were: 25 μL of volume reaction, 3 mM of MgCl2, and 0.5 μL each of reverse and forward primers (10 pMol).
(§4) Expression levels were normalized using the expression of 36B4 gene as reference.
(§5) Expression levels were determined using the standard curve equation for both the housekeeping gene and the target gene (taking into account the specific PCR efficiency of each target gene).
(§6) The induction factor vs TGFβ1 was determined as follow: […]

[2] = test system: FGFR1 gene expression in hHSC; settings: 3 μM; TGFβ1 1 ng/mL, 24 hours, serum free
Protocol: as §1, §2, §3, §4, §5, §6

[3] = test system: Col1α1 gene expression in hHSC; settings: 3 μM; TGFβ1 1 ng/mL, 24 hours, serum free
Protocol: (§7) The human primary hepatic stellate cells (hHSC) (ScienCell) were cultured under standard conditions, as described above. For experiments to determine gene expression patterns, hHSC were plated at a density of 1.4×10^5 cells/well into 12-well plates and were cultured overnight. Next day, culture medium was removed, cells were washed with PBS (Invitrogen cat #14190) and serum-free and SteCGS-free medium was added for an additional 16 hours. Cells were treated with compounds in addition to TGFβ1 (1 ng/mL) in a serum-free and SteCGS-free medium for 24 hours.
Total RNA was isolated using RNeasy® Mini Kit (Qiagen) following manufacturer's instructions. […]
Quantitative PCR was then carried out using the MyiQ Single-Color Real-Time PCR Detection or the iCycler iQ Multiplex Real-Time PCR Detection System (both systems from Biorad). […]
(§8) For each gene, the standard curves were drawn by selecting the best points (at least three points) in order to have PCR reaction efficiency close to 100% and a correlation coefficient close to 1. Expression levels were determined using the standard curve equation for both the housekeeping gene and the target gene (taking into account the specific PCR efficiency of each target gene).
as §6

[4] = test system: Col4α1 gene expression in hHSC; settings: 10 μM; TGFβ1 1 ng/mL, 24 hours, serum free
Protocol: as §7
(§9) Total RNA was isolated using RNeasy® Mini Kit (Qiagen) following manufacturer's instructions. 250 ng of total RNA were reverse transcribed in cDNA using M-MLV RT (Moloney Murine Leukemia Virus Reverse Transcriptase) (Invitrogen cat #28025) in presence of RT buffer 1× (Invitrogen), 1 mM DTT (Invitrogen), 0.18 mM dNTPs (Promega), 200 ng pdN6 (Amersham) and 30 U of RNase inhibitor (Promega).
as §3, §4, §8, §6
(§10) Thus, lower the induction factor is more the compound of interest inhibits the TGFβ1 activation of hHSC. Experimental results were expressed as mean±standard deviation (SD) of the induction factor.
(§11) The expression of both profibrotic and cancer associated genes was induced in the primary human hepatic stellate cells (hHSCs) by the treatment with the TGFβ1 (1 ng/mL) in serum free conditions. […] The expression of the genes of interest in both treated and untreated hHSCs was determined by the quantitative RT-PCR technique, following 24 hours of exposure to the TGFβ1.
(§12) Experimental results were expressed as Emax values that indicate the maximum inhibition, which was obtained at the concentration of 10 μmole/L. Statistical analyses were performed using an one-way ANOVA followed by Bonferroni post-hoc tests, using Sigma Plot 11.0 software.

[5] = test system: VEGFR1 gene expression in hHSC; settings: 10 μM; TGFβ1 1 ng/mL, 24 hours, serum free
Protocol: as §7, §9, §3, §4, §8, §6, §10, §11, §12

[6] = test system: HGFR gene expression in hHSC; settings: 10 μM; TGFβ1 1 ng/mL, 24 hours, serum free
Protocol: as §7, §9, §3, §4, §8, §6, §10, §11, §12

[7] = test system: αSMA gene expression in hHSC; settings: 10 μM; TGFβ1 1 ng/mL, 24 hours, serum free
Protocol: as §7, §9, §3, §4, §8, §6, §10, §11, §12

Q: With `CNC(=O)c1cc(Oc2ccc(NC(=O)Nc3ccc(Cl)c(C(F)(F)F)c3)cc2)ccn1` [Sorafenib] as the molecule, how does the “Emax, reduction in TGFβR1 gene expression vs hHSC treated with TGFβ1 alone” value [1] read?
A: Its value is −80%.

Q: What about the “Emax, reduction in FGFR1 gene expression vs hHSC treated with TGFβ1 alone” value [2] of the same molecule?
A: Its value is −43%.

Q: What about the “Emax, reduction in Col1α1 gene expression vs hHSC treated with TGFβ1 alone” value [3] of the same molecule?
A: Its value is −93%.

Q: What about the “Emax, reduction in Col4α1 gene expression vs hHSC treated with TGFβ1 alone” value [4] of the same molecule?
A: Its value is −93%.

Q: And the “Emax, reduction in VEGFR1 gene expression vs hHSC treated with TGFβ1 alone” value [5]?
A: Its value is −95%.

Q: And the “Emax, reduction in HGFR gene expression vs hHSC treated with TGFβ1 alone” value [6]?
A: The value was −79%.

Q: And the “Emax, reduction in αSMA gene expression vs hHSC treated with TGFβ1 alone” value [7]?
A: The value was −95%.

Reference: patent US10792277B2, “Methods of treatment of fibrosis and cancers” (GENFIT, priority 2013, dated 2020)
